Legend:
Early Stage PD patients = system: Early Stage PD patients
Text: If, at any stage during the placebo-controlled phase the investigator determines that a subject needs additional anti-PD therapy, the subject will proceed to Phase II of the study. The investigator, aided by a questionnaire, will give careful consideration to the issue of a subject's need for additional anti-PD therapy. Scheduled in-clinic visits will be conducted at baseline and at weeks 4, 12, 24 and 36. Therefore, altogether there will be 5 scheduled visits during this phase. Unscheduled visits may be conducted at any time to assess a subject's need for additional anti-PD therapy, for safety reasons or for any other reason.
III. Additional Efficacy Endpoints • 1. Number (%) of subjects who need additional anti-PD therapy • 2. Time to need of additional anti-PD therapy • 3. Change from baseline to LOV in placebo-controlled phase in Part I of revised UPDRS (version 4)

PD patients = settings: cited from earlier work

C#CCN[C@@H]1CCc2ccccc21 [rasagiline]
Hazard Ratio, time to additional anti-PD therapy, 1 mg-Placebo Difference (Early Stage PD patients; PC Phase, rasagiline 1 mg vs placebo, Cox Proportional Hazards Model): 0.385
Hazard Ratio, time to additional anti-PD therapy, 2 mg-Placebo Difference (Early Stage PD patients; PC Phase, rasagiline 2 mg vs placebo, Cox Proportional Hazards Model): 0.379
Need for additional anti PD Therapy (Early Stage PD patients; rasagiline 1 mg and 2 mg, end of the PC phase): beneficial effect
functional decline vs treatment delayed for 6 months (PD patients; 1 and 2 mg/d rasagiline for one year, TEMPO): less functional decline
efficacy as monotherapy in PD patients (PD patients; first 6-month double-blind, randomized placebo-controlled stage of TEMPO): efficacious as monotherapy

— patent US20140243418A1, “RASAGILINE FOR PARKINSON'S DISEASE MODIFICATION” (Teva Pharmaceutical Industries, Ltd., priority 2008, published 2014)
